System: NOMO1
Assay: cell viability relative to DMSO control; higher = less cytotoxic
Conditions: 48 h
In short: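 Before seeding, each leukemia line was adapted for at least four passages in each medium. NOMO1 or SEM cells (500 cells/well) and P12-Ichikawa cells (1000 cells/well) went into 1536-well plates at 5 μl, then received library compounds in DMSO by pin dosing across 11 threefold concentrations, 47 μM to 0.79 nM. Readout was CellTiter-Glo One luminescence after 48 h at 37°C, and viability is given as a per-plate percentage of DMSO wells, with cell-free wells as background.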

[1] = HPLM + 10% dialyzed FBS, 0.000781 µM
[2] = HPLM + 10% dialyzed FBS, 0.00234 µM
[3] = HPLM + 10% dialyzed FBS, 0.00702 µM
[4] = HPLM + 10% dialyzed FBS, 0.0211 µM
[5] = HPLM + 10% dialyzed FBS, 0.0632 µM
[6] = HPLM + 10% dialyzed FBS, 0.19 µM
[7] = HPLM + 10% dialyzed FBS, 0.569 µM
[8] = HPLM + 10% dialyzed FBS, 1.71 µM
[9] = HPLM + 10% dialyzed FBS, 5.12 µM
[10] = HPLM + 10% dialyzed FBS, 15.4 µM
[11] = HPLM + 10% dialyzed FBS, 46.1 µM
[12] = RPMI 5 mM glucose + 10% FBS, 0.000781 µM
[13] = RPMI 5 mM glucose + 10% FBS, 0.00234 µM
[14] = RPMI 5 mM glucose + 10% FBS, 0.00702 µM
[15] = RPMI 5 mM glucose + 10% FBS, 0.0211 µM
[16] = RPMI 5 mM glucose + 10% FBS, 0.0632 µM
[17] = RPMI 5 mM glucose + 10% FBS, 0.19 µM
[18] = RPMI 5 mM glucose + 10% FBS, 0.569 µM
[19] = RPMI 5 mM glucose + 10% FBS, 1.71 µM
[20] = RPMI 5 mM glucose + 10% FBS, 5.12 µM
[21] = RPMI 5 mM glucose + 10% FBS, 15.4 µM
[22] = RPMI 5 mM glucose + 10% FBS, 46.1 µM
[23] = RPMI 5 mM glucose + 10% dialyzed FBS, 0.000781 µM
[24] = RPMI 5 mM glucose + 10% dialyzed FBS, 0.00234 µM
[25] = RPMI 5 mM glucose + 10% dialyzed FBS, 0.00702 µM
[26] = RPMI 5 mM glucose + 10% dialyzed FBS, 0.0211 µM
[27] = RPMI 5 mM glucose + 10% dialyzed FBS, 0.0632 µM
[28] = RPMI 5 mM glucose + 10% dialyzed FBS, 0.19 µM
[29] = RPMI 5 mM glucose + 10% dialyzed FBS, 0.569 µM
[30] = RPMI 5 mM glucose + 10% dialyzed FBS, 1.71 µM
[31] = RPMI 5 mM glucose + 10% dialyzed FBS, 5.12 µM
[32] = RPMI 5 mM glucose + 10% dialyzed FBS, 15.4 µM
[33] = RPMI 5 mM glucose + 10% dialyzed FBS, 46.1 µM

Structure (SMILES)	cell viability [1] [%]	cell viability [2] [%]	cell viability [3] [%]	cell viability [4] [%]	cell viability [5] [%]	cell viability [6] [%]	cell viability [7] [%]	cell viability [8] [%]	cell viability [9] [%]	cell viability [10] [%]	cell viability [11] [%]	cell viability [12] [%]	cell viability [13] [%]	cell viability [14] [%]	cell viability [15] [%]	cell viability [16] [%]	cell viability [17] [%]	cell viability [18] [%]	cell viability [19] [%]	cell viability [20] [%]	cell viability [21] [%]	cell viability [22] [%]	cell viability [23] [%]	cell viability [24] [%]	cell viability [25] [%]	cell viability [26] [%]	cell viability [27] [%]	cell viability [28] [%]	cell viability [29] [%]	cell viability [30] [%]	cell viability [31] [%]	cell viability [32] [%]	cell viability [33] [%]
CC(C)c1noc(N2CCC(COc3ccc(-c4ccc([S+](C)(=O)[O-])cc4)nc3)CC2)n1	122	104	117	103	122	108	120	109	94.3	109	116	114	113	122	118	121	114	122	104	105	110	100	118	122	118	122	117	128	119	109	116	113	107
O=c1[nH]c(=O)n([C@H]2C[C@H](O)[C@@H](CO)O2)cc1/C=C/Br	89.1	108	120	108	123	108	96.2	96.5	79.4	72.4	55.4	93.9	111	97.7	106	114	101	113	117	106	120	110	123	110	102	122	119	114	107	121	134	130	105
N#CCNC(=O)c1ccc(-c2ccnc(Nc3ccc(N4CCOCC4)cc3)n2)cc1	109	115	116	134	128	117	115	105	124	87.3	8.36	88.7	116	101	113	107	106	106	89.5	102	86	11.3	48.6	105	129	113	120	110	99.7	90.8	114	85.6	10.8
O=C(Nc1cccc(C(F)(F)F)c1)Nc1cc([S+](=O)([O-])NC2CC2)ccc1-c1ccsc1												111	99.2	102	105	104	97.7	105	109	105	96	16.5											
CCN1CCN(c2ccc(Nc3cc(N(C)C(=O)Nc4c(Cl)c(OC)cc(OC)c4Cl)ncn3)cc2)CC1	103	120	124	124	102	117	98.8	90.9	41.7	25.9	11.6	119	131	114	118	110	118	121	111	63.3	34.3	15.9	103	106	119	116	130	103	111	108	68.8	32.7	14.9
O=C1c2ccccc2-[n+]2ccc3c([nH]c4ccccc43)c21	106	114	125	93.1	103	120	104	99.6	62	2.96	2.32	98	115	104	110	112	103	112	108	87	3.28	2.18	91.3	116	107	97.1	98.5	126	101	102	66.4	3.34	2
